Measurements: patent US20050080076A1 (Xanodyne Pharmacal, Inc., priority 2003, published 2005)

Experiments:
P-glycoprotein (p-gp) = biological target: T1, P-glycoprotein (p-gp) (Homo sapiens, UniProt P08183); assay: P-glycoprotein efflux in CACO-2 Model; format: in vitro ADME
T1 construct: using a human colon carcinoma cell line (CACO-2 Model); endogenous in cells; host or cells: CACO-2 (human colon carcinoma cell line)

Adrenergic α1C = Adrenergic α1C (Homo sapiens, UniProt P35348); assay: Receptor binding, Adrenergic α1C
Chain of Adrenergic α1C (P35348 whole entry): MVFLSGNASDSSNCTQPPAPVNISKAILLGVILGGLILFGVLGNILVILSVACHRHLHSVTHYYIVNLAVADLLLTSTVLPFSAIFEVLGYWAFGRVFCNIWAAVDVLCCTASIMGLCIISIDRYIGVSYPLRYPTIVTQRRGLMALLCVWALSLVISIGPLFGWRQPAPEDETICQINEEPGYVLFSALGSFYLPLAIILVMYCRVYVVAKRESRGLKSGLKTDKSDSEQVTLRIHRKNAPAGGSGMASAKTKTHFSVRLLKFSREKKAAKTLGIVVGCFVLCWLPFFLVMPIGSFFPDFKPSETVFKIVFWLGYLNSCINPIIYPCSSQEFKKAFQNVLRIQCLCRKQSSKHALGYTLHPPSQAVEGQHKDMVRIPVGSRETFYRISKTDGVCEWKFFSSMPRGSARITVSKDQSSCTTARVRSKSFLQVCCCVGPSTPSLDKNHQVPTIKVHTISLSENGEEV
Protocol: Receptor-ligand binding studies were performed as known to one skilled in the art. […] Binding to the histamine H1 receptor, the calcium ion channel receptor, and the sodium ion channel receptor were also evaluated. […] Sulfoxide indicates the sulfoxide metabolite. […] Ki (the inhibition constants of binding) indicate binding affinity.

T1 sequence (P08183 whole entry): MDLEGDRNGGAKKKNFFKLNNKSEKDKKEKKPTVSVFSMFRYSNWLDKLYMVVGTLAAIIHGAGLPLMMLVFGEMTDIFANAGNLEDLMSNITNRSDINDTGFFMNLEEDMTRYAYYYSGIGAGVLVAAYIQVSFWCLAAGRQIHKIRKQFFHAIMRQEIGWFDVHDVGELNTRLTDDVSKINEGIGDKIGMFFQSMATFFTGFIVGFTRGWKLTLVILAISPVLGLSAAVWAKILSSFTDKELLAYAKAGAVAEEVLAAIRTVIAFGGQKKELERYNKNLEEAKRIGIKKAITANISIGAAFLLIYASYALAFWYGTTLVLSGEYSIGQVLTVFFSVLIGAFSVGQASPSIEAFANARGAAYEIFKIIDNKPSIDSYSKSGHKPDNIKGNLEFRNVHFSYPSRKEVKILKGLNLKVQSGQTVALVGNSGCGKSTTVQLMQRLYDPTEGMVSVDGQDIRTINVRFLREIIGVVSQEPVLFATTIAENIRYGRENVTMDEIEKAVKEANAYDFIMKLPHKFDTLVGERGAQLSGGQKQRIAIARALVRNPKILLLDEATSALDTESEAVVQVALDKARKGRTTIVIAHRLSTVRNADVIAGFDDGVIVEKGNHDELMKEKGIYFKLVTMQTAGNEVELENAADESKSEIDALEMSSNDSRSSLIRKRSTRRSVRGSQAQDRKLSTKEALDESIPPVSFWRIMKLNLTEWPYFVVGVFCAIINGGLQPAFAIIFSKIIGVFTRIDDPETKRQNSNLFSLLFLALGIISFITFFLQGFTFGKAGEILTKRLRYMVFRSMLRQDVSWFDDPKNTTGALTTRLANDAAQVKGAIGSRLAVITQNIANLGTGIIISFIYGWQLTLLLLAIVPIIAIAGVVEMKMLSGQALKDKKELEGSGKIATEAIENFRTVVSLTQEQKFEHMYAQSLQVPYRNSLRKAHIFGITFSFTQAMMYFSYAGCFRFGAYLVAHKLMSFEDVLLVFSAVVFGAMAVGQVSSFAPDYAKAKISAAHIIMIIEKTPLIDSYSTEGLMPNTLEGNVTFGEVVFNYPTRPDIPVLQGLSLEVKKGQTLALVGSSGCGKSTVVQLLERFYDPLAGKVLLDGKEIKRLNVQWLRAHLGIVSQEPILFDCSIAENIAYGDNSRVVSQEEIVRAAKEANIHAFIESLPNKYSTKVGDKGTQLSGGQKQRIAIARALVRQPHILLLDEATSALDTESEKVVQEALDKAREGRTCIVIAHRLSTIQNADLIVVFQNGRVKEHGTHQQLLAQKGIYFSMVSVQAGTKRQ

Structure (SMILES)	transport by P-glycoprotein relative to parent LMP (P-glycoprotein (p-gp))	inhibition of efflux relative to parent LMP (P-glycoprotein (p-gp); in the presence of p-gp inhibitor verapamil)	relative efflux to influx ratio, reduction versus parent LMP (P-glycoprotein (p-gp); through the enterocyte, less than parent LMP)	Ki (Adrenergic α1C) [nM]
CNCC(C)CN1c2ccccc2Sc2ccc(OC)cc21 (stereo not drawn) [NDM LMP, R(+) 2-methoxy-10-2-methyl-3-monomethylaminopropyl phenothiazine]	to a lesser degree than the parent LMP	at least one-half lower	at least 50%	
COc1ccc2c(c1)N(C[C@H](C)CN(C)C)c1ccccc1[S+]2[O-] (stereo partly shown) [Sulfoxide, levomepromazine sulfoxide]				193
